# According to patent US20260137662A1, “CD11B AGONISTS FOR TREATMENT OF AUTOIMMUNE DISEASE” (Rush University Medical Center, priority 2022, published 2026):
# What was measured:
# TLR4 mediated pathways = test: Relative gene expression in myeloid cells stimulated with LPS; type: cell-based; settings: LPS (50ng/ml) and LA1 (20 uM) co-treatment, 4 hour
# Experimental: FIG. 4A illustrates the relative gene expression of biomarker IL-1bin myeloid cells after 4 hour of treatment with vehicle DMSO (UT), LA1 (20 uM), LPS (50ng/ml), or LPS and LA1 co-treatment.
# FIG. 4B illustrates the relative gene expression of biomarker IL-18 in myeloid cells after 4 hour of treatment with vehicle DMSO (UT), LA1 (20 uM), LPS (50ng/ml), or LPS and LA1 co-treatment.
# FIG. 4C illustrates the relative gene expression of biomarker uPAR in myeloid cells after 4 hour of treatment with vehicle DMSO (UT), LA1 (20 uM), LPS (50ng/ml), or LPS and LA1 co-treatment.
# FIG. 4D illustrates the relative gene expression of biomarker IL-6 in myeloid cells after 4 hour of treatment with vehicle DMSO (UT), LA1 (20 uM), LPS (50ng/ml), or LPS and LA1 co-treatment.
# The impact of CD11b activation by LA1 on TLR4 mediated pathways was similarly assessed by stimulating myeloid cells with LPS, a known TLR4 stimulant, and co-treating with LA1.
# TLR signaling pathways = test: Relative gene expression in RAW cells treated with Poly(I:C); type: cell-based, murine; settings: Poly(I:C) (0.1 ug/mL) and LA1 (20 uM) co-treatment, 4 hours
# Experimental: FIG. 2C illustrates relative gene expression of biomarker uPAR in RAW cells after 4 hours of treatment with Poly(I:C) (0.1 ug/mL), LA1 (20 uM), and Poly(I:C) […] LA1 co-treatment.
# FIG. 2D illustrates relative gene expression biomarker IL-1b in RAW cells after 4 hours of treatment with Poly(I:C) (0.1 ug/mL), LA1 (20 uM), or Poly(I:C) and LA1 co-treatment.
# The effect of LA1 on TLR-stimulation dependent pro-inflammatory pathways was studied by stimulating myeloid cells with different TLR-stimulants (lipopolysaccharide (LPS), Pam2CSK 4, imiquimod (IMQ)) or with phorbol 12-myristate 13-acetate (PMA) and co-treating with LA1. The levels of suPAR (pg/mL) and TNFa (pg/mL) in cell supernatant were measured 4 hours after treatment using ELISA. […] Relative gene expression was also assessed in myeloid cells treated with Poly(I:C), a known toll-like receptor (TLR) agonist, and co-treated with LA1.
# [1] = test system: RAW 264.7 murine macrophage cell line; test: suPAR and TNFa secretion from RAW 264.7 cells treated with LN patient sera (ELISA); type: cell-based; settings: co-treatment LN sera (0.5%) and LA1 (20 uM), 4 hours, vs LN sera alone
# Experimental: FIG. 1A illustrates levels of biomarker suPAR secretion from RAW 264.7 cells after 4 hours of treatment with cell culture medium (UT), LA1 (20 uM), LN patient sera (0.5%) in culture medium ([…]), or co-treatment with LN sera (0.5%) and LA1 (20 uM). […] FIG. 1B illustrates levels of biomarker TNFa secretion from RAW 264.7 cells after 4 hours of treatment with cell culture medium (UT), LA1 (20 uM), LN patient sera (0.5%) in culture medium ([…]), or co-treatment with LN sera (0.5%) and LA1 (20 uM). […] Myeloid cells from RAW 264.7 murine macrophage cell line were used to measure the concentration of pro-inflammatory biomarkers, soluble uPAR (suPAR) and TNFa, in the presence of lupus nephritis (LN) sera and LA1. The levels of pro-inflammatory biomarkers were measured in the supernatant of untreated cells, cells treated with LA1, cells treated with sera from patients with lupus nephritis (LN), and cells co-treated with LN sera and LA1. The concentrations of various pro-inflammatory biomarkers in cell supernatant were measured 4 hours after treatment using ELISA.
# [2] = test system: BMDMs from C57BL/6 mice expressing CD11b with a point mutation (KI); test: Biomarker secretion from IMQ-treated bone marrow derived macrophages of CD11b KI mice; type: cell-based; settings: KI cells (genetically activated CD11b), IMQ (20 ug/mL) and LA1 (20 uM) co-treatment, 4 hours
# Experimental: (§1) FIG. 7A illustrates levels of biomarker IL-6 secretion in bone marrow derived macrophages (BMDMs) from C57BL/6 wild type (WT) mice, mice with global deletion of CD11b (KO), or C57BL/6 mice expressing CD11b with a point mutation (KI), the macrophages treated for 4 hours with vehicle DMSO (UT), LA1 (20 uM), IMQ (20 ug/mL), or IMQ and LA1 co-treatment. Bars show mean with SD (N=3) (*P<0.05, **P<0.01, ***P<0.001, ****P<0.0001).
# as §1, with “7B” for “7A”, “IL-1b” for “IL-6”
# as §1, with “7C” for “7A”, “suPAR” for “IL-6”
# as §1, with “7D” for “7A”, “IFNb” for “IL-6”
# Bone marrow derived macrophages (BMDMs) from C57BL/6 wild type mice (WT), mice with global deletion of CD11b (KO), and C57BL/6 mice expressing CD11b with a point mutation (KI), as described previously (Martinez et al., 2020) were used to evaluate the effect of pharmacologic activation of CD11b by LA1 or genetic activation of CD11b on TLR-pathway dependent biomarkers. BMDMs from WT, KO, and KI mice were left untreated, treated with LA1, treated with IMQ, or co-treated with LA1 and IMQ and levels of biomarkers IL-1b, suPAR, IL-6 and IFN-b were measured 4 hours after treatment.
smiles,measurement,setting,value
"O=C(O)c1ccc(-c2ccc(/C=C3\SC(=S)N(Cc4ccccc4)C3=O)o2)cc1 [LA1, (Z)-4-(5-((3-benzyl-4-oxo-2-thioxothiazolidin-5-ylidene)methyl)furan-2-yl)benzoic acid]",expression of biomarker IL-1b,TLR4 mediated pathways,significantly decreased
same,expression of biomarker IL-6,TLR4 mediated pathways,significantly decreased
same,expression of biomarker IL-18,TLR4 mediated pathways,significantly decreased
same,expression of biomarker uPAR,TLR4 mediated pathways,significantly decreased
same,relative gene expression of biomarker IL-1b,TLR signaling pathways,significantly reduced
same,relative gene expression of biomarker uPAR,TLR signaling pathways,significantly reduced
same,level of TNFa in cell supernatant,[1],significantly reduced
same,level of soluble uPAR (suPAR) in cell supernatant,[1],significantly reduced
same,level of IFN-b in cell supernatant,[2],did not change basal levels
same,level of IL-1b in cell supernatant,[2],did not change basal levels
same,level of IL-6 in cell supernatant,[2],did not change basal levels
same,level of suPAR in cell supernatant,[2],did not change basal levels
